Reference: patent US9116157B2, “Ice-cleaved alpha-synuclein as a biomarker” (Brandeis University, priority 2010, dated 2015)

What was measured:
ICE = biological target: T1, ICE (Homo sapiens, UniProt P29466); experiment: ICE digestion of α-synuclein in vitro, SDS-PAGE and western blot with anti-synuclein antibody; type: biochemical
T1 sequence (P29466 120-297 limits assumed): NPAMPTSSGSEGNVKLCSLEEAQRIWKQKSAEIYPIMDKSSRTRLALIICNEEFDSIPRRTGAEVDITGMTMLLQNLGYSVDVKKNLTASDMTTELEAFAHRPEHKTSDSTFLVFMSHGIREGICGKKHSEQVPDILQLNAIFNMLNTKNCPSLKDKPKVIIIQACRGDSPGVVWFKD
T1 sequence (P29466 317-404 limits assumed): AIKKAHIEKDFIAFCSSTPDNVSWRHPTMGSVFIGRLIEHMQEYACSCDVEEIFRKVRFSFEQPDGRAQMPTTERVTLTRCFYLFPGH
Procedure: Here, a 60 ul reaction mixture consisting of 21 μg of synuclein, 10 μg ICE in 100 mM HEPES, pH 7.4, 0.1% OG, 10% glycerol, 150 mM NaCl, with or without 20 μM inhibitor was incubated at 37° C. for 2 hours. 20 μl were withdrawn from the reaction for SDS-PAGE followed by western blotting with anti-synuclein antibody (FIG. 6).

[1] = Blood-brain barrier penetration in animals, preliminary tests; type: in vivo
Text: The present example describes an approach for assessing is the ability of, inter alia, the two compounds referenced above (i.e., VX-765 and NCGC00185682) to cross the blood brain-barrier (BBB). […] In view of the fact that studies of VX-765 as a potential epilepsy therapeutic are currently underway at Vertex, it is hypothesized that either BBB penetration in humans is better or that the amount of compound in the CNS that is needed to achieve the desired effect being measured in the studies is small.

[2] = tested on: M17 cells overexpressing alpha-synuclein; experiment: LIVE/DEAD cell viability assay, rescue from alpha-synuclein-induced toxicity; type: cell-based, human; conditions: FIG. 10
Text: (§1) Humans have 28 calpain and caspase isozymes—a large but not impossible number to test. RNAi was used to knock down each of these in turn in a neuronal cell culture model of PD. It is a neuroblastoma cell line (BE(2)-M17) carrying a wild-type α-synuclein overexpressing vector. BE(2)-M17 is a clone of the SK-N-BE(2) cell line that was established in November of 1972 from a bone marrow biopsy taken from a child with neuroblastoma. Synuclein on its own is not toxic to these cells, but it is toxic when combined with an oxidative stress agent such as rotenone or menadione. Greater than 90% reduction of mRNA levels for each of the 29 protease genes was routinely achieved, and greater than 50% reduction in protein levels (typically, about 70% reduction) was routinely achieved.
A cell viability assay was performed using LIVE/DEAD (molecular probes) assay according to the manufacture instructions. As summarized in FIG. 10, both RNAi knockdown of caspase-1/ICE and treatment with the caspase-1/ICE inhibitor block synuclein fragment formation in nerve cells and should inhibit synuclein aggregation in neuronal cells derived from one or more mouse models of PD.

[3] = tested on: M17 cells overexpressing α-synuclein; experiment: M17 cell viability in the presence of menadione (α-synuclein overexpression); type: cell-based, human; conditions: low concentrations; FIG. 8
Text: as §1

[4] = tested on: M17 cells carrying empty pcDNA3 vector; experiment: M17 cell viability in the presence of menadione (empty vector); type: cell-based, human; conditions: low concentrations; FIG. 8
[5] = tested on: M17 overexpressing α-synuclein; experiment: α-synuclein fragmentation in M17 cells, western blot with anti-synuclein antibody; type: cell-based, human; conditions: 12 μM and 14 μM in 1% DMSO; FIG. 9
Procedure: In this set of experiments, M17 overexpressing α-synuclein was grown in Optimem in presence or absence of menadione to confluence. Cells were then scraped and lysed by sonnication for SDS-PAGE followed by western blotting with anti-synuclein antibody.

CC(C)(C)[C@H](NC(=O)c1ccc(N)c(Cl)c1)C(=O)N1CCC[C@H]1C(=O)N[C@H](C#N)CC(=O)O [NCGC00185682]
ICE-generated α-synuclein fragment below 17 kD (western blot) (ICE; 20 μM inhibitor, 10 μg ICE, 37° C., 2 hours): diminished
block of caspase-1 cleavage of alpha-synuclein (ICE; dose-dependent, FIG. 6): completely blocks
BBB penetration [1]: low

CCO[C@@H]1OC(=O)C[C@@H]1NC(=O)[C@@H]1CCCN1C(=O)[C@@H](NC(=O)c1ccc(N)c(Cl)c1)C(C)(C)C [VX-765]
BBB penetration [1]: low
rescue from alpha-synuclein-induced toxicity (cell viability) [2]: rescued

CC1=CC(=O)c2ccccc2C1=O [menadione]
toxicity to M17 cells overexpressing α-synuclein [3]: toxic
toxicity to M17 cells carrying empty pcDNA3 vector [4]: not toxic
fragmentation of α-synuclein (smaller fragment below 17 kD) [5]: induced fragmentation of α-synuclein
